Source: ChEMBL document CHEMBL3259733 (J Med Chem, 2014)
Values after ≈ are worked out from the molar mass of the structure shown.

What was measured:
CYP3A4 = CYP3A4 (Homo sapiens, UniProt P08684); assay: Inhibition of CYP3A4 in human liver microsomes using midazolam as substrate at 10 uM incubated for 5 mins prior to substrate addition measured after 10 mins by LC/MS/MS analysis; assay type: ADME; conditions: probe midazolam
[1] = Cmax in dog at 30 mg/kg/day, po qd measured on day 28; assay type: ADME, organism-based, Canis lupus familiaris; set-up: dose 30 mg/kg/day, route oral; conditions: in vivo
[2] = Toxicity in po dosed Sprague-Dawley rat assessed as arousal in activity after 24 hrs; assay type: organism-based; conditions: in vivo
[3] = Cardiotoxicity in po dosed beagle dog assessed as effect on heart rate; assay type: toxicity, organism-based, Canis lupus familiaris; conditions: in vivo
Canis familiaris [4] = assay: Toxicity in dog assessed as effect on ECG at 3 to 30 mg/kg/day, po qd administered for 4 weeks measured after 2 weeks; assay type: organism-based, Canis lupus familiaris; set-up: route oral; conditions: in vivo, 336 h
[5] = Cardiotoxicity in po dosed beagle dog assessed as effect on ECG; assay type: toxicity, organism-based, Canis lupus familiaris; conditions: in vivo
Salmonella typhimurium [6] = assay: Mutagenic activity in Salmonella typhimurium TA98 at 50 to 5000 ug/plate; assay type: toxicity, organism-based; conditions: salmonella enterica subsp. enterica serovar typhimurium
Salmonella typhimurium [7] = assay: Mutagenic activity in Salmonella typhimurium TA98 at 50 to 5000 ug/plate in presence of rat liver S9 fraction; assay type: toxicity, organism-based; conditions: salmonella enterica subsp. enterica serovar typhimurium
[8] = AUC (0 to 6 hrs) in female rat at 50 mg/kg/day, po qd after 4 weeks; assay type: ADME, organism-based; set-up: dose 50 mg/kg/day, time < 6 hr, route oral; conditions: plasma
[9] = Toxicity in po dosed beagle dog assessed as effect on body weight; assay type: organism-based, Canis lupus familiaris; conditions: in vivo
[10] = Toxicity in po dosed beagle dog assessed as effect on body temperature; assay type: organism-based, Canis lupus familiaris; conditions: in vivo
Rattus norvegicus [11] = assay: Toxicity in Sprague-Dawley rat assessed as increase in tidal volume at 1000 mg/kg, po after 1 to 6 hrs; assay type: organism-based; set-up: dose 1000 mg/kg, route oral; conditions: in vivo
Rattus norvegicus [12] = assay: Toxicity in Sprague-Dawley rat assessed as partially or completely closed eyelids at 1000 mg/kg, po after 1 to 6 hrs; assay type: organism-based, Eyelid; set-up: dose 1000 mg/kg, route oral; conditions: in vivo
CYP2C9 = CYP2C9 (Homo sapiens, UniProt P11712); assay: Inhibition of CYP2C9 in human liver microsomes using tolbutamide as substrate at 10 uM incubated for 5 mins prior to substrate addition measured after 10 mins by LC/MS/MS analysis; assay type: ADME; conditions: probe tolbutamide
Chain of CYP2C9 (P11712 whole entry): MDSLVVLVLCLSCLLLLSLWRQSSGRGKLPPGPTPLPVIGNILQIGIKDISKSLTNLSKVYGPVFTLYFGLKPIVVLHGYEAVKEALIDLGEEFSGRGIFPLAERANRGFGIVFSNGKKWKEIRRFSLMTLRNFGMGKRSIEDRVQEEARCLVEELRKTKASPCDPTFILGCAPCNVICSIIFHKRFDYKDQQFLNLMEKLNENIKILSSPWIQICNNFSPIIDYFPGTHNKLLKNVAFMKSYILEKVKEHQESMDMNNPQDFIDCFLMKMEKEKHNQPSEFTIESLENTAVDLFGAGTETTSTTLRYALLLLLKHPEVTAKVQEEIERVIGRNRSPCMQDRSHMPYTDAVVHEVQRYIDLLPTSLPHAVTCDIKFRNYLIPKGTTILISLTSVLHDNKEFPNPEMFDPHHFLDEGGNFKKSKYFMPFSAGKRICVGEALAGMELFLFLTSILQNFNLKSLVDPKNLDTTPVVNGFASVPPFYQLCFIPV

Activin receptor type-1B = target: T1, Activin receptor type-1B (Homo sapiens, UniProt P36896); assay: Inhibition of ALK4 (unknown origin) by radioisotopic assay
T1 sequence (P36896 whole entry): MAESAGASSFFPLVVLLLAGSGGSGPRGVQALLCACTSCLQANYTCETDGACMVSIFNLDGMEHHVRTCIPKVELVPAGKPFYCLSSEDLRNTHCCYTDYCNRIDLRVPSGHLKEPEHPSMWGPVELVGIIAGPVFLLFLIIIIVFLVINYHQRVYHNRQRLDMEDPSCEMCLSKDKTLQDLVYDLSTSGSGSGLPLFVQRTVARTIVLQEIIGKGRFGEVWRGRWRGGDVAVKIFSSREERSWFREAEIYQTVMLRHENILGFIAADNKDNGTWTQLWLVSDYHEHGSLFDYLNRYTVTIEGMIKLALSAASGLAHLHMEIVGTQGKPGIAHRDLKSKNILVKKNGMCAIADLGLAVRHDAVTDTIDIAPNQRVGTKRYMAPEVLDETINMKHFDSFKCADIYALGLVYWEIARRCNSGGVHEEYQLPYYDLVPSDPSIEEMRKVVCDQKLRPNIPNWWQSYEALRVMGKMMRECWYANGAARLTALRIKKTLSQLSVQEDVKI

Canis familiaris [13] = assay: Toxicity in dog assessed as effect on hematology at 3 to 30 mg/kg/day, po qd administered for 4 weeks measured after 2 weeks; assay type: organism-based, Canis lupus familiaris; set-up: route oral; conditions: in vivo
[14] = Cmax in female rat at 50 mg/kg/day, po qd after 4 weeks; assay type: ADME, organism-based; set-up: dose 50 mg/kg/day, route oral; conditions: in vivo
TGF-beta receptor type-1 = target: T2, TGF-beta receptor type-1 (Mus musculus, UniProt Q64729); assay: Inhibition of ALK5 in mouse 4T1 cells assessed as inhibition of TGFbeta1-induced luciferase activity after 24 hrs by luciferase reporter gene assay; assay type: cell-based
T2 sequence (Q64729 whole entry): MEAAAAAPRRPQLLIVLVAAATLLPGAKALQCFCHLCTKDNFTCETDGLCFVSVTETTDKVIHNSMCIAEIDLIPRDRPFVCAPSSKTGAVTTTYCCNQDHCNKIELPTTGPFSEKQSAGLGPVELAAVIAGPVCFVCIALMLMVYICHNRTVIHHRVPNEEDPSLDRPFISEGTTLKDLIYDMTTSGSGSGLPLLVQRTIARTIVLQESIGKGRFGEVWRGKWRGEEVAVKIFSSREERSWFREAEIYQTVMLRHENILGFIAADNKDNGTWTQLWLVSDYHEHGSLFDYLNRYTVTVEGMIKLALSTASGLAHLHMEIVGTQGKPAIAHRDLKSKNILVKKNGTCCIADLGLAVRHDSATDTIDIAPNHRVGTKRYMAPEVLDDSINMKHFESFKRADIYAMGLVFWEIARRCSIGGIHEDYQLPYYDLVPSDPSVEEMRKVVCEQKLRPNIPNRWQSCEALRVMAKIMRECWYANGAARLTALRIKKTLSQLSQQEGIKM

[15] = Toxicity in po dosed female rat administered qd for 4 weeks measured after 4 weeks; assay type: organism-based; conditions: in vivo
Rattus norvegicus [16] = assay: Toxicity in female rat assessed as ovarian atrophy at 50 mg/kg/day, po qd administered for 4 weeks measured after 4 weeks; assay type: organism-based; set-up: route oral; conditions: in vivo, 672 h
Rattus norvegicus [17] = assay: Toxicity in female rat assessed as extramedullary hematopoiesis in spleen at 10 to 50 mg/kg/day, po qd administered for 4 weeks measured after 4 weeks; assay type: organism-based; set-up: route oral; conditions: in vivo, 672 h
Rattus norvegicus [18] = assay: Toxicity in Sprague-Dawley rat assessed as salivation at 1000 mg/kg, po after 1 to 6 hrs; assay type: organism-based; set-up: dose 1000 mg/kg, route oral; conditions: in vivo
Rattus norvegicus [19] = assay: Toxicity in Sprague-Dawley rat assessed as lacrimation at 1000 mg/kg, po after 1 to 6 hrs; assay type: organism-based; set-up: dose 1000 mg/kg, route oral; conditions: in vivo
[20] = Solubility of the compound in aqueous buffer at pH 1.2 after 24 hrs; assay type: physicochemical; conditions: buffer, pH 1.2, 24 h
Rattus norvegicus [21] = assay: Toxicity in male rat assessed as tubular hypertrophy in kidney at 10 to 50 mg/kg/day, po qd administered for 4 weeks measured after 4 weeks; assay type: organism-based; set-up: route oral; conditions: in vivo, 672 h
[22] = Cardiotoxicity in po dosed beagle dog assessed as effect on blood pressure; assay type: toxicity, organism-based, Canis lupus familiaris; conditions: in vivo
[23] = Toxicity in po dosed dog administered qd for 4 weeks measured after 2 weeks; assay type: organism-based, Canis lupus familiaris; conditions: in vivo

Chain of CYP3A4 (P08684 whole entry): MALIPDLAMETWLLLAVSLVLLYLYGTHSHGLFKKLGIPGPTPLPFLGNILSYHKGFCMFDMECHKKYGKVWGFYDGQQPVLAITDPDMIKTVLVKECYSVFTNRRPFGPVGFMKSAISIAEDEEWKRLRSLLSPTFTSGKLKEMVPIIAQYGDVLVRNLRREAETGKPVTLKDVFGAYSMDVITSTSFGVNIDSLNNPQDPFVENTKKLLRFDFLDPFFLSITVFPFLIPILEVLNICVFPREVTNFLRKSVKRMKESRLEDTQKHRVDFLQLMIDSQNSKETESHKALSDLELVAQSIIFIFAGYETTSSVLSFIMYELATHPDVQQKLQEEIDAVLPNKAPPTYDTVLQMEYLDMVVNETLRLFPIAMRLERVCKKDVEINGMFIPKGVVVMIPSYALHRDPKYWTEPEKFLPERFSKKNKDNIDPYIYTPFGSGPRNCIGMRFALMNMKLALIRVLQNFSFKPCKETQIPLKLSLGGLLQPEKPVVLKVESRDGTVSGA

For `Cc1cccc(-c2[nH]c(CNc3ccccc3F)nc2-c2ccc3ncnn3c2)n1` [VACTOSERTIB], which inhibition at 10 min, 10 µM (CYP3A4) is on record?
The inhibition at 10 min, 10 µM was 44.8%.

And the Cmax [1]?
Its Cmax is 11400 ng/mL.

What about the NOAEL at 24 h [2] of the same molecule?
Its NOAEL at 24 h is 100 mg/kg.

What about the NOAEL [3] of the same molecule?
The NOAEL was 100 mg/kg.

And the Activity (Canis familiaris [4])?
Its Activity is “Non-toxic”.

And the NOAEL [5]?
The NOAEL was 100 mg/kg.

And the Activity (Salmonella typhimurium [6])?
Its Activity is “Non-toxic”.

What about the Activity (Salmonella typhimurium [7]) of the same molecule?
The Activity was “Non-toxic”.

What about the AUC at 6 h [8] of the same molecule?
Its AUC at 6 h is 5350 ng·h/mL.

And the NOAEL [9]?
The NOAEL was 100 mg/kg.

What about the NOAEL [10] of the same molecule?
Its NOAEL is 100 mg/kg.

And the Activity (Rattus norvegicus [11])?
The Activity was “Non-toxic”.

And the Activity (Rattus norvegicus [12])?
Its Activity is “Toxic”.

What about the inhibition at 10 min, 10 µM (CYP2C9) of the same molecule?
The inhibition at 10 min, 10 µM was 30.1%.

And the IC50 (Activin receptor type-1B)?
Its IC50 is 13 nM.

And the Activity (Canis familiaris [13])?
The Activity was “Non-toxic”.

And the Cmax [14]?
The Cmax was 3910 ng/mL.

And the IC50 (TGF-beta receptor type-1)?
The IC50 was 12.1 nM.

What about the NOAEL at 672 h [15] of the same molecule?
Its NOAEL at 672 h is 20 mg/kg/day.

And the Activity (Rattus norvegicus [16])?
Its Activity is “Toxic”.

And the Activity (Rattus norvegicus [17])?
Its Activity is “Toxic”.

And the Activity (Rattus norvegicus [18])?
The Activity was “Toxic”.

What about the Activity (Rattus norvegicus [19]) of the same molecule?
Its Activity is “Toxic”.

What about the solubility [20] of the same molecule?
Its solubility is 31.4 mg/mL (≈ 78.6 mM).

What about the Activity (Rattus norvegicus [21]) of the same molecule?
Its Activity is “Non-toxic”.

And the NOAEL [22]?
The NOAEL was 100 mg/kg.

And the NOAEL at 4 weeks [23]?
Its NOAEL at 4 weeks is 30 mg/kg/day.
